Assay results reported in article PMC7937321 (Genes and Environment, 2021).

How the values were obtained:
[1] = system: human lymphoblastoid TK6 cells, thymidine kinase gene; test: TK gene mutation assay (TK6 assay, OECD TG490)
Experimental: In principle, this collaborative study conducted the treatment of test substances, the dose finding, and the main test of TK6 assays, according to the OECD Guideline TG490 [17]. […] Briefly, test substances were dissolved in an appropriate solvent (DMSO or ethanol) and then serially diluted to prepare final concentrations. […] The 4 h and 24 h treatments were conducted by shaking and static exposures, respectively. After treatment with test substances, cells were centrifuged (1000 rpm, 5 min), supernatants were removed, and cells were washed with a serum-free medium or Hank’s Balanced Salt Solution. After centrifugation (1000 rpm, 5 min) to remove the supernatant, cells (2 × 10^7 cells) were dispersed in an RPMI medium containing 10% serum, and cell concentration was measured. Treated cells were cultured at 37 °C with 5% CO2 condition and used for TK6 assays. At that time, to calculate the cloning efficiency (CE) (Eq. 1), the cells were cultured in a 96-well microplate at a concentration of about 1.6 cells/well for 2 weeks.
The TK6 assay is conducted between 20 and 10% RS0 as a maximum dose if cytotoxicity is observed. If no precipitate or limiting cytotoxicity was observed, the maximum dose was the lowest concentration among 10 mM, 2 mg/mL, or 2 μL/mL of the test substance. When the main TK6 assay was difficult to conduct under the condition of RS0 values from 20 to 10%, the test was conducted between 20 and 10% relative total growth (RTG), described later, as a maximum dose.
On the third day of culture, CE3 plates for determining plating efficiency and mutant frequency (MF) plates for mutation detection were prepared. CE3 plates were seeded in 96-well microplates at a concentration of about 1.6 cells/well. The MF plates were seeded in 96-well microplates at 40,000 cells/well in the presence of 3 μg/mL of trifluorothymidine (Sigma Aldrich).
Mutant colonies in MF plates were calculated using Eq. 7 using the Poisson distribution. EW was the number of wells without colonies, and TW was the total number of wells. N was the average number of cells per well (N = 40,000 in this study). The data were statistically analyzed by Omori’s method, a modified Dunnett’s procedure for identifying clear negatives, a Simpson–Margolin procedure for detecting downturn data, and a trend test to evaluate the dose dependency [42, 43]. The acceptability criterion for the test was that the MF value of the positive control group of each laboratory was increased with statistical significance compared with that of the concurrent negative control group.

[2] = system: TK6 cells; test: Cytotoxicity in the TK6 assay (CE, RS, RSG, RTG)
Experimental: Briefly, test substances were dissolved in an appropriate solvent (DMSO or ethanol) and then serially diluted to prepare final concentrations. […] The 4 h and 24 h treatments were conducted by shaking and static exposures, respectively. After treatment with test substances, cells were centrifuged (1000 rpm, 5 min), supernatants were removed, and cells were washed with a serum-free medium or Hank’s Balanced Salt Solution. After centrifugation (1000 rpm, 5 min) to remove the supernatant, cells (2 × 10^7 cells) were dispersed in an RPMI medium containing 10% serum, and cell concentration was measured. Treated cells were cultured at 37 °C with 5% CO2 condition and used for TK6 assays. At that time, to calculate the cloning efficiency (CE) (Eq. 1), the cells were cultured in a 96-well microplate at a concentration of about 1.6 cells/well for 2 weeks.
CE, the cell colony formation rate, was calculated using Eq. 1 according to the Poisson distribution equation. EW was the number of wells without colonies, and TW was the total number of wells. N was the average number of cells per well (N = 1.6). 1 CE=−lnEW/TW/N
Additionally, CE was adjusted by the following calculation (Eq. 2) due to cell loss when exposure caused cytotoxicity. “The number of cells at the end of the treatment” was the number of cells obtained after centrifugation at the end of the treatment in the above-described exposure treatment of the test substance. The “cell number at the start of treatment” was 2 × 10^7. 2 AdjustedCE=CE×number of cellsatendof treatment/number of cellsatthe start of treatment
CE0 seeding, in which cells were seeded immediately after treatment, and CE3 seeding, in which cells were seeded 3 days after treatment, to examine cell viability in the TK6 assay described below. The relative cell viability RS0 (%) just after the treatment with the test substance was calculated from CE0, following Eq. 3. The survival rate of the negative control group was defined as 100%. 3 RS0%=adjusted CE0 of treatment culture/adjusted CE0 of solvent control×100
The TK6 assay is conducted between 20 and 10% RS0 as a maximum dose if cytotoxicity is observed. […] When the main TK6 assay was difficult to conduct under the condition of RS0 values from 20 to 10%, the test was conducted between 20 and 10% relative total growth (RTG), described later, as a maximum dose.
Besides RS0, relative suspension growth (RSG) and RTG as other cytotoxicity indices (Eq. 4) were used. When cells were cultured for 3 days after treatment with the test substance, suspension cell growth ratio 1 (SG1) was the growth ratio from day 0 to day 1 (cell concentration on day 1/cell concentration on day 0). The suspension cell growth ratio 2 (SG2) was the growth ratio from day 1 to day 2 (cell concentration on day 2/cell concentration on day 1). The RSG value was calculated by dividing the total SG value of the untreated group for 3 days by the total SG value of the treated group for the same 3 days (Eq. 4).
On the third day of culture, CE3 plates for determining plating efficiency and mutant frequency (MF) plates for mutation detection were prepared. CE3 plates were seeded in 96-well microplates at a concentration of about 1.6 cells/well.

[3] = TK6, short treatment -S9 mix, 250 μg/mL
[4] = TK6, short treatment -S9 mix, 500 μg/mL
[5] = TK6, short treatment -S9 mix, 1000 μg/mL
[6] = TK6, short treatment -S9 mix, 2000 μg/mL
[7] = dose 250 μg/mL, +S9 mix, short treatment
[8] = dose 250 μg/mL, -S9 mix, 24 h treatment
[9] = dose 500 μg/mL, +S9 mix, short treatment
[10] = dose 500 μg/mL, -S9 mix, 24 h treatment
[11] = dose 1000 μg/mL, +S9 mix, short treatment
[12] = dose 1000 μg/mL, -S9 mix, 24 h treatment
[13] = dose 2000 μg/mL, +S9 mix, short treatment
[14] = dose 2000 μg/mL, -S9 mix, 24 h treatment
[15] = dose 3.00 μg/mL, short treatment, +S9 mix
[16] = short treatment, +S9 mix, positive control, dose 10.00 μg/mL
[17] = Short treatment, +S9 mix, 3.00 μg/mL
[18] = Short treatment, +S9 mix, 3.00 μg/mL, Day 0
[19] = short treatment, +S9 mix, Day 0, positive control, dose 10.00 μg/mL

Structure (SMILES): Cc1c(N)cccc1N [2,6-DAT]
- %SG [1, 3]: 77.8%
- Mut. freq. (×10-6) N-MF [1, 3]: 2.2 ×10-6
- Mut. freq. (×10-6) S-MF [1, 3]: 7.9 ×10-6
- Mut. freq. (×10-6) T-MF [1, 3]: 10.1 ×10-6
- %SG [1, 4]: 86.8%
- Mut. freq. (×10-6) N-MF [1, 4]: 0.9 ×10-6
- Mut. freq. (×10-6) S-MF [1, 4]: 5.8 ×10-6
- Mut. freq. (×10-6) T-MF [1, 4]: 6.7 ×10-6
- %SG [1, 5]: 83.3%
- Mut. freq. (×10-6) N-MF [1, 5]: 2.1 ×10-6
- Mut. freq. (×10-6) S-MF [1, 5]: 10.3 ×10-6
- Mut. freq. (×10-6) T-MF [1, 5]: 12.3 ×10-6
- %SG [1, 6]: 78.9%
- Mut. freq. (×10-6) N-MF [1, 6]: 1.9 ×10-6
- Mut. freq. (×10-6) S-MF [1, 6]: 7.3 ×10-6
- Mut. freq. (×10-6) T-MF [1, 6]: 9.2 ×10-6
- %SG [1, 7]: 74.2%
- Mut. freq. N-MF [1, 7]: 2.7 ×10-6
- Mut. freq. S-MF [1, 7]: 7.7 ×10-6
- Mut. freq. T-MF [1, 7]: 10.3 ×10-6
- %SG [1, 8]: 76.3%
- Mut. freq. N-MF [1, 8]: 3.4 ×10-6
- Mut. freq. S-MF [1, 8]: 10.8 ×10-6
- Mut. freq. T-MF [1, 8]: 14.2 ×10-6
- %SG [1, 9]: 83.1%
- Mut. freq. N-MF [1, 9]: 1.5 ×10-6
- Mut. freq. S-MF [1, 9]: 7.6 ×10-6
- Mut. freq. T-MF [1, 9]: 9.1 ×10-6
- %SG [1, 10]: 79.9%
- Mut. freq. N-MF [1, 10]: 3.0 ×10-6
- Mut. freq. S-MF [1, 10]: 11.9 ×10-6
- Mut. freq. T-MF [1, 10]: 14.9 ×10-6
- %SG [1, 11]: 79.2%
- Mut. freq. N-MF [1, 11]: 1.8 ×10-6
- Mut. freq. S-MF [1, 11]: 7.0 ×10-6
- Mut. freq. T-MF [1, 11]: 8.9 ×10-6
- %SG [1, 12]: 87.5%
- Mut. freq. N-MF [1, 12]: 3.4 ×10-6
- Mut. freq. S-MF [1, 12]: 24.1 ×10-6
- Mut. freq. T-MF [1, 12]: 27.5 ×10-6
- %SG [1, 13]: 80.8%
- Mut. freq. N-MF [1, 13]: 3.4 ×10-6
- Mut. freq. S-MF [1, 13]: 14.5 ×10-6
- Mut. freq. T-MF [1, 13]: 17.9 ×10-6
- %SG [1, 14]: 84.3%
- Mut. freq. N-MF [1, 14]: 3.4 ×10-6
- Mut. freq. S-MF [1, 14]: 18.1 ×10-6
- Mut. freq. T-MF [1, 14]: 21.4 ×10-6
- Adjusted CE0(%) [2, 3]: 52.1%
- CE0 (%), cell viability on Day 0 [2, 3]: 53.2%
- CE3 (%), cell viability on Day 3 [2, 3]: 116.0%
- RS0 (%) [2, 3]: 75.5%
- RSG [2, 3]: 0.717
- CE3 ([2]; TK6, short treatment -S9 mix, 250 μg/mL, as fraction): 1.160
- Adjusted CE0(%) [2, 4]: 49.9%
- CE0 (%), cell viability on Day 0 [2, 4]: 48.8%
- CE3 (%), cell viability on Day 3 [2, 4]: 104.6%
- RS0 (%) [2, 4]: 72.4%
- RSG [2, 4]: 0.788
- CE3 ([2]; TK6, short treatment -S9 mix, 500 μg/mL, as fraction): 1.046
- Adjusted CE0(%) [2, 5]: 40.8%
- CE0 (%), cell viability on Day 0 [2, 5]: 40.8%
- CE3 (%), cell viability on Day 3 [2, 5]: 92.1%
- RS0 (%) [2, 5]: 59.2%
- RSG [2, 5]: 0.679
- CE3 ([2]; TK6, short treatment -S9 mix, 1000 μg/mL, as fraction): 0.921
- Adjusted CE0(%) [2, 6]: 26.2%
- CE0 (%), cell viability on Day 0 [2, 6]: 28.3%
- CE3 (%), cell viability on Day 3 [2, 6]: 112.0%
- RS0 (%) [2, 6]: 38.0%
- RSG [2, 6]: 0.616
- CE3 ([2]; TK6, short treatment -S9 mix, 2000 μg/mL, as fraction): 1.120
- Adjusted CE0 [2, 7]: 75.0%
- CE0 (cell viability on Day 0) [2, 7]: 72.7%
- CE3 (cell viability on Day 3) [2, 7]: 81.6%
- RS0 [2, 7]: 80.9%
- RSG [2, 7]: 0.721
- CE3 ([2]; dose 250 μg/mL, +S9 mix, short treatment, as fraction): 0.816
- Adjusted CE0 [2, 8]: 51.3%
- CE3 (cell viability on Day 3) [2, 8]: 95.0%
- RS0 [2, 8]: 57.2%
- RSG [2, 8]: 0.982
- CE3 ([2]; dose 250 μg/mL, -S9 mix, 24 h treatment, as fraction): 0.950
- Adjusted CE0 [2, 9]: 70.6%
- CE0 (cell viability on Day 0) [2, 9]: 68.7%
- CE3 (cell viability on Day 3) [2, 9]: 86.6%
- RS0 [2, 9]: 76.2%
- RSG [2, 9]: 0.855
- CE3 ([2]; dose 500 μg/mL, +S9 mix, short treatment, as fraction): 0.866
- Adjusted CE0 [2, 10]: 25.3%
- CE0 (cell viability on Day 0) [2, 10]: 36.0%
- RS0 [2, 10]: 28.1%
- RSG [2, 10]: 0.472
- CE3 ([2]; dose 500 μg/mL, -S9 mix, 24 h treatment, as fraction): 1.160
- Adjusted CE0 [2, 11]: 45.8%
- CE0 (cell viability on Day 0) [2, 11]: 43.3%
- CE3 (cell viability on Day 3) [2, 11]: 95.0%
- RS0 [2, 11]: 49.5%
- RSG [2, 11]: 0.544
- CE3 ([2]; dose 1000 μg/mL, +S9 mix, short treatment, as fraction): 0.950
- Adjusted CE0 [2, 12]: 25.1%
- CE3 (cell viability on Day 3) [2, 12]: 101.2%
- RS0 [2, 12]: 28.0%
- RSG [2, 12]: 0.453
- CE3 ([2]; dose 1000 μg/mL, -S9 mix, 24 h treatment, as fraction): 1.012
- Adjusted CE0 [2, 13]: 31.8%
- CE0 (cell viability on Day 0) [2, 13]: 31.5%
- CE3 (cell viability on Day 3) [2, 13]: 84.1%
- RS0 [2, 13]: 34.3%
- RSG [2, 13]: 0.246
- CE3 ([2]; dose 2000 μg/mL, +S9 mix, short treatment, as fraction): 0.841
- Adjusted CE0 [2, 14]: 20.5%
- CE0 (cell viability on Day 0) [2, 14]: 25.3%
- CE3 (cell viability on Day 3) [2, 14]: 108.2%
- RS0 [2, 14]: 22.8%
- RSG [2, 14]: 0.237
- CE3 ([2]; dose 2000 μg/mL, -S9 mix, 24 h treatment, as fraction): 1.082

Structure (SMILES): O=P1(N(CCCl)CCCl)NCCCO1 (centres unmarked) [CP, Cyclophosphamide, reference compound]
- %SG [1, 15]: 75.7%
- Mut. freq. (×10-6) N-MF [1, 15]: 14.0 ×10-6
- Mut. freq. (×10-6) S-MF [1, 15]: 43.8 ×10-6
- Mut. freq. (×10-6) T-MF [1, 15]: 57.8 ×10-6
- mutant frequency of the concurrent positive control (mean) ([1]; short treatment with S9 mix, 2.5–3 μg/mL): 28.6 × 10^− 6
- %SG [1, 16]: 50.8%
- Mut. freq. N-MF [1, 16]: 10.0 ×10-6
- Mut. freq. S-MF [1, 16]: 10.3 ×10-6
- Mut. freq. T-MF [1, 16]: 20.3 ×10-6
- Daily cell growth Day 1×2×3 [2, 17]: 7.35
- RSG [2, 17]: 0.385
- Adjusted CE0 [2, 18]: 34.5%
- CE0 [2, 18]: 36.0%
- RS0 [2, 18]: 43.1%
- CE3 ([2]; Short treatment, +S9 mix, 3.00 μg/mL, Day 3): 66.7%
- CE3 [2, 15]: 0.667
- RS [2, 15]: 43.1
- Adjusted CE0 [2, 19]: 11.6%
- CE0 [2, 19]: 10.6%
- RS0 [2, 19]: 12.2%
- CE3 ([2]; short treatment, +S9 mix, Day 3, positive control, dose 10.00 μg/mL): 68.7%
- CE3 ([2]; short treatment, +S9 mix, as fraction, positive control, dose 10.00 μg/mL): 0.687
- RSG [2, 16]: 0.063
